{"source": "patent US20220184058A1", "about": "“PHARMACEUTICAL COMPOSITION FOR TREATING AORTIC ANEURYSM” (National University Corporation Hamamatsu University School …, priority 2019, published 2022)", "test_system": "aortic wall hypoxia-induced rat AAA model", "assay": "Aortic wall hypoxia-induced rat AAA model: non-rupture survival / mortality due to rupture", "type": "in vivo", "conditions": "day of operation to Day 28 post operation, versus control group; trend toward improvement in survival rate", "excerpt": "The action of Compound 1 and pitavastatin in rat AAA models (Non-Patent Document 3) induced by operation were examined. In the operation, the aortic wall of each model was separated from the surrounding tissues. After a catheter was inserted, the abdominal aorta was ligated together with a catheter with a thread was studied.\nIn the test, Compound 1 was manufactured according to the method disclosed in Patent Document 1 and mixed, in a proportion of 0.15%, with a normal diet (FR2, manufactured by Funabashi Farm Co., Ltd.), and the Compound 1-mixed diet was used. In regard to pitavastatin, 0.003% of pitavastatin calcium was mixed with a normal diet(FR2, manufactured by Funabashi Farm Co., Ltd.) and the pitavastatin-mixed diet was used.\nSprague-Dawley male rats (300 to 350 g: Japan SLC, Inc.) were used in the experiment. The rats were reared at room temperature of 25° C.±1° C., and allowed to freely take the feed and water.\nThe model was created according to the method disclosed in Non-Patent Document 3. Specifically, a rat AAA model was created by separating the rat aortic wall from the surrounding tissue, inserting a polyurethane catheter, and then ligating the abdominal aorta together with a plastic catheter with a monofilament thread, and inducing AAA. […]\nIn each group, up to 28 days post operation, the aneurysm diameter was measured by echo and comparison in survival was made. […]", "data": [{"smiles": "O=C(NCCCOc1ccc2[nH]c(=O)ccc2c1)N(C1CC1)[C@@H]1CCCC[C@H]1O", "note": "[Compound 1, (−)-6-[3-[3-cyclopropyl-3-[(1R,2R)-2-hydroxycyclohexyl]ureido]propoxy]-2(1H)-quinolinone]", "values": [{"measurement": "mortality rates due to rupture", "result": "lower than that in the control group"}]}]}
